Assay [1] relates to HT-29 human colon cancer cell line. The experiment in a line: Cytotoxicity assay against HT-29 human colon cancer cell line. Type of assay: cell-based. Conditions: HT-29, read-out: cytotoxicity ED50.
Assay [2] concerns HT-29 cells. The experiment in a line: In vivo hollow fiber assay, HT-29 cells. The arrangement: species or system human. Conditions: cells implanted at i.p. site; doses 2.5, 5, 10, 20 mg/kg.
Assay [3] deals with LNCaP (hormone-dependent human prostate cancer) cells. Put plainly: In vivo hollow fiber assay, LNCaP cells. Conditions: cells implanted at i.p. site; doses 2.5, 5, 10, 20 mg/kg.

The source of these data is publication PMC2887388 (Journal of natural products, 2009).

A value given as a limit tells only on which side of the number the result lay.

With `COc1cc2oc3cc(O)c(OC)c(CC=C(C)C)c3c(=O)c2c2c1CC(O)C(C)(C)O2` (centres unmarked) [Compound 1, 11-hydroxy-3-O-methyl-1-isomangostin], in assay [1], the IC50 was more than 10 µM.
With `COc1c(O)cc2oc3cc(O)c4c(c3c(=O)c2c1CC=C(C)C)OC(C)(C)C(O)C4` (centres unmarked) [Compound 2, 11-hydroxy-1-isomangostin], the IC50 in assay [1] was more than 10 µM.
For the compound `COc1c(O)cc2oc3cc(O)c(CC=C(C)C)c(O)c3c(=O)c2c1CC=C(C)C` [Compound 5, α-mangostin], the “activity in hollow fiber assay (HT-29)” value in assay [2] is “inactive”. In addition, the “activity in hollow fiber assay (LNCaP)” value in assay [3] is “inactive”.
In the case of `COc1c(O)cc2oc3cc4c(c(O)c3c(=O)c2c1CC=C(C)C)[C@@H](c1c(O)c(CC=C(C)C)c(O)c2c(=O)c3c(CC=C(C)C)c(OC)c(O)cc3oc12)[C@H](C(C)(C)O)O4` [Compound 11, cratoxyxanthone], the IC50 in assay [1] was more than 10 µM.
